Data taken from publication PMC6681301, “Multi-Target β-Protease Inhibitors from Andrographis paniculata: In Silico and In Vitro Studies” (Plants, 2019).

Key:
[1] = tested on: AChE; design: method as in PMID 29850593; conditions: cited from earlier work
[2] = tested on: BChE; design: method as in PMID 29850593; conditions: cited from earlier work
[3] = molecular target: butyrylcholinesterase (Human) (Homo sapiens, UniProt P06276); test: In vitro BChE activity assay (Ellman); format: biochemical
Procedure: (§1) The inhibitory activities of both AChE and BChE were measured using the spectrophotometric method developed by Ellman. Acetylcholinesterase (Human), butyrylcholinesterase (Human) with […] (ACh), and […] (BCh) were used as their substrates, respectively. The enzyme activity was observed using Varioskan Flash (version 4.00.53), and the reading was observed using SkanIt Software (2.4.5 RE for Varioskan Flash). AChE and BChE solutions of ~0.15 unit/μL were prepared. The stock solution of AChE substrate (2.5 μM) and BChE substrate (2.5 μM) solution was prepared with DMSO, respectively.
(§2) The isolated compound inhibitor solutions were prepared using the same method as discussed in the BACE-1 assay. The sodium phosphate buffer (pH 8) (78 μL, 79 μL, 80 μL, 81 μL), 20 μL of the 5, 5′-dithiobis-(2-nitrobenzoic acid) (DTNB), AChE, and BChE enzyme solution (2 μL), substrate solution (20 μL), and inhibitor solutions (0 μL, 1 μL, 2 μL, 3 μL, 4 μL) were added to a 96-well plate. Each concentration was considered in triplicate. The plate was incubated for 15 min at 25 °C, and the readings were taken at 412 nm. The percentage inhibition was calculated using the formula percentage inhibition = (1 − C/I) × 100, where C and I were the enzyme activities without and with the test sample, respectively.

[4] = molecular target: T1, BACE-1 (Homo sapiens, UniProt P56817); test: In vitro BACE-1 activity assay (Sigma BACE-1 FRET assay kit); format: biochemical
T1 construct: purchased Sigma
Procedure: The assay was performed according to the manufacturer protocol supplied in BACE-1 activity (Sigma, BACE-1FRET assay kit). […] The BACE-1 substrate solution (50 μM), a BACE-1 enzyme solution (2 μL), and inhibitor solutions were prepared as per the manufacturer’s protocol.
BACE-1 substrate solution was prepared with 1 mg/mL (500 μM) by adding 0.5 ml of DMSO to BACE-1 substrate. 7-Methoxycumarin-4-acetyl-Asn670, Lue 671-Amyloid β/A4 Precursor Protein 770 Fragment 667-(2,4 dinitrophenyl), and Lys-Arg-Arg amide […] salt was used as a substrate for BACE-1. A BACE-1 enzyme solution of ~0.3 unit/μL was prepared. […] The isolated compounds were used for the isolated inhibitor solution preparation. The 5281780 solution (20 μM) with 1% DMSO was prepared after heating the solution at 55 °C for 5 min. The 188316 solution (20 μM) was prepared with 1% DMSO. The 5280443 solution was also prepared with concentration of 20 μM in 1% DMSO. These inhibitor solutions with variable concentrations (1 μM, 2 μM, 3 μM, 4 μM) were used for testing BACE-1 activities. The fluorescence assay buffer (78 μL, 79 μL, 80 μL, 81 μL), a BACE-1 enzyme solution (2 μL), the substrate solution (20 μL), and inhibitor solutions (0 μL, 1 μL, 2 μL, 3 μL, 4 μL) were added to a 96-well plate. Each concentration was considered in triplicate. […] The plate was incubated for 120 min at 37 °C, and the readings were taken. The readings were noted as S120. The percent inhibition was calculated using the formula, percent inhibition = [1 − (S120 − S0)/(C120 − C0)] × 100 [139].

[5] = molecular target: Acetylcholinesterase (Human) (Homo sapiens, UniProt P22303); test: In vitro AChE activity assay (Ellman); format: biochemical
Procedure: as §1, §2

[6] = molecular target: glycogen synthase kinase-3b; conditions: read-out: IC50, inhibition of glycogen synthase kinase-3b; cited from earlier work
[7] = tested on: BChE (equine serum); design: method as in PMID 23529036; conditions: cited from earlier work
[8] = tested on: AChE (electric eel); design: method as in PMID 23529036; conditions: cited from earlier work

Chain of Acetylcholinesterase (Human) (P22303 32-614): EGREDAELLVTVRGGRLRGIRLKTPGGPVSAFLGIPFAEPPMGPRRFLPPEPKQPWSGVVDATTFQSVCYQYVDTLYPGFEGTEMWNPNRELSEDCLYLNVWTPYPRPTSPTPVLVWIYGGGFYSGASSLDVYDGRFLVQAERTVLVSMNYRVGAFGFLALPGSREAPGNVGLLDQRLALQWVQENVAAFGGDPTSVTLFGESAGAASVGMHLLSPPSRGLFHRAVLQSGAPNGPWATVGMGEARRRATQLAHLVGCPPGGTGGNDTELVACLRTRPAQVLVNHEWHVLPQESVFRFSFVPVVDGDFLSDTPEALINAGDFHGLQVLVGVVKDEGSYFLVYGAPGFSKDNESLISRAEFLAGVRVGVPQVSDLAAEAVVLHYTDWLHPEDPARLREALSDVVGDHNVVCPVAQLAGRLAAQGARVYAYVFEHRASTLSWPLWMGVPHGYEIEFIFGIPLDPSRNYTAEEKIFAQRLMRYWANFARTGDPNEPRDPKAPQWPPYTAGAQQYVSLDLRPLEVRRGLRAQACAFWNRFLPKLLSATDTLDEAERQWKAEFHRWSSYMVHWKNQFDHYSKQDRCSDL
T1 sequence (P56817 46-501): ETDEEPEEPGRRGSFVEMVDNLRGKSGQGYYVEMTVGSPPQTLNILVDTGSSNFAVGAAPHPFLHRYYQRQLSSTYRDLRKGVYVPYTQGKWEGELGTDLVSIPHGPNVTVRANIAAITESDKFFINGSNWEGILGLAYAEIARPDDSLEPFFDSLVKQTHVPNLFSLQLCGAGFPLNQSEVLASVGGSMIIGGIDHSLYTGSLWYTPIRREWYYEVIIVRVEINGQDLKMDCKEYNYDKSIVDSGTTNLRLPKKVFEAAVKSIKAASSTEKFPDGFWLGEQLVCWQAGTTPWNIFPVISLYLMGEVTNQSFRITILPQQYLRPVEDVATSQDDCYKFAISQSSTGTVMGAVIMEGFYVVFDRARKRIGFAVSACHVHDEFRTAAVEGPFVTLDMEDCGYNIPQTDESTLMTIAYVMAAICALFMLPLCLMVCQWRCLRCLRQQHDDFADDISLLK
Chain of butyrylcholinesterase (Human) (P06276 29-602): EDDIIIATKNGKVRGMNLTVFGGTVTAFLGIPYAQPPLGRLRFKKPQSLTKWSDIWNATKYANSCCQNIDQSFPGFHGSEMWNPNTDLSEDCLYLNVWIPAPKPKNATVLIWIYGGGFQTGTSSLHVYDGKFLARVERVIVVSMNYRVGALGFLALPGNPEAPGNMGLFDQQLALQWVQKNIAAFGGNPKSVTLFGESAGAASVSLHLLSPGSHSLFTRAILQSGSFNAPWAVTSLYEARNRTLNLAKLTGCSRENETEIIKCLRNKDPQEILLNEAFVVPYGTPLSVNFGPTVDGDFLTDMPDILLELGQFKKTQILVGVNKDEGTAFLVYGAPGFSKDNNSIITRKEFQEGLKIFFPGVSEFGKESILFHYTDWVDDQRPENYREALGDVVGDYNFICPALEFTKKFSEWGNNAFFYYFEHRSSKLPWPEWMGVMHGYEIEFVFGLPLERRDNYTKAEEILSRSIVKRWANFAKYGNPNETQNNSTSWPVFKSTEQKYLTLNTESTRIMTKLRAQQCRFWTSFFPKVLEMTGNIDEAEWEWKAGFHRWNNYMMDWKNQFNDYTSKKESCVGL

Compound	IC50 [3]	IC50 [4]	IC50 [5]	further results
COc1cc2c(cc1O)C[C@H]1c3c(cc(O)c(OC)c3-2)CCN1C [Boldine]				IC50 [1]: 372000 nM; IC50 [2]: 321000 nM
COc1cc(O)c2c(=O)cc(-c3ccccc3)oc2c1OC [Compound 188316, 7-o-methylwogonin]	1460 ± 20 nM	2910 ± 40 nM	2460 ± 30 nM	potency relative to eserine ([5]; comparison of IC50 values (Table 4)): ~1.5 fold
O=c1cc(-c2ccc(O)cc2)oc2cc(O)cc(O)c12 [Compound 5280443, apigenin]	1970 ± 10 nM	3790 ± 260 nM	3420 ± 20 nM	IC50 [6]: 1900 nM
O=C(C=Cc1ccc(O)c(O)c1)OC1CC(O)(C(=O)O)CC(O)C1OC(=O)C=Cc1ccc(O)c(O)c1 (centres unmarked) [Compound 5281780, 3,4-di-o-caffeoylquinic acid]		3310 ± 120 nM	2140 ± 40 nM	
